Legend:
mTOR = target: T1, mTOR (Homo sapiens, UniProt P42345); assay: mTOR HTR-FRET Assay; format: biochemical; conditions: HTR-FRET screening assay, GST-p70S6 kinase fragment substrate
T1 construct: Dilute TOR fraction 1:14 in “Simple TOR Buffer”
Experimental: The following is an example of an assay that can be used to determine the mTOR inhibitory activity of a test compound. Reagents are prepared as follows:
“Simple TOR buffer” (used to dilute high glycerol TOR fraction): 10 mM Tris pH 7.4, 100 mM NaCl, 0.1% Tween-20, 1 mM DTT (from 1M stock frozen at −20° C. just prior to use). For convenience a large quantity of “Simple TOR buffer” w/o DTT can be stored at 4° C. It can be brought to room temperature and DTT added just prior to dilution of TOR fraction.
5×KB/5×Mn/5×ATP solution (used to dilute substrate GST-p70S6kin 81 a.a. just prior to use) (40 ml screen quantity shown):
Enzyme solution: Dilute TOR fraction 1:14 in “Simple TOR Buffer”. For current lot that is 640 μg/ml TOR fraction diluted 14× to yield 45.7 μg/ml TOR in buffer (i.e. 7.85 ml TOR pooled fraction+102.1 ml Simple TOR buffer=110 ml 14× diluted TOR fraction). Each Enzyme Lot must be QC'd prior to assay.
Substrate solution: This may be prepared just prior to assay if preferred. Dilute 5.3 mg/ml GST-p70S6kinase fragment stock to 3.5 μg/ml (97 nM) working stock in 5×KB/5×Mn/5×ATP solution (i.e. 26.41 μL (5.3 mg/ml) GST-p70S6+40 ml 5×KB/5×Mn/5×ATP=40 ml 3.5 μg/ml (97 nM)).
Assay Buffer (for dilution of Antibodies used in Antibody Detection Reagent):
Antibody Detection Reagent (this reagent should be made just prior to addition to Assay Plates):
Using PlateTrak program (Screen) or Matrix Pipettor (SAR), 19.5 μL of diluted TOR fraction is added to assay plate in all test, reference or positive control wells. 19.5 μL of “Simple TOR buffer” is added to all negative control wells. If treating multiple plates with the same compounds, can increase volume of enzyme to multiples of 19.5 μL in a tall 384 well polypropylene plate.
Using EP3, 0.5 μl of test, reference or control DMSO is added to each well with mixing. Plates are incubated for 30 minutes at room temperature.
Using PlateTrak program (Screen) or Matrix Pipettor (SAR) 5 μL of 5×KB/5×Mn/5×ATP/5× substrate solution is added to each well of the assay plate to start the reaction. The solutions are mixed well and incubated for 2 hours at room temperature.
Using PlateTrak program (Screen) or Matrix Pipettor (SAR) 5 μL of 60 mM EDTA is added to stop the reaction. The solutions are mixed well and allowed to sit for 15-20 minutes before the next step.
Using PlateTrak program (Screen) or Matrix Pipettor (SAR) 10 μl of Antibody Detection Reagent is added. The solutions are mixes well and incubated for 5 hours to O/N to allow antibodies to form complexes with phosphorylated substrate.
Plates are read on AnalystHT using protocol Multi-Method protocol.

PKCθ = target: T2, PKCθ (Homo sapiens, UniProt Q04759); assay: PKCθ IMAP Assay; format: biochemical; conditions: IMAP fluorescence polarization screening assay, 35 μM ATP
T2 construct: purchased Invitrogen
T2 sequence (Q04759 whole entry): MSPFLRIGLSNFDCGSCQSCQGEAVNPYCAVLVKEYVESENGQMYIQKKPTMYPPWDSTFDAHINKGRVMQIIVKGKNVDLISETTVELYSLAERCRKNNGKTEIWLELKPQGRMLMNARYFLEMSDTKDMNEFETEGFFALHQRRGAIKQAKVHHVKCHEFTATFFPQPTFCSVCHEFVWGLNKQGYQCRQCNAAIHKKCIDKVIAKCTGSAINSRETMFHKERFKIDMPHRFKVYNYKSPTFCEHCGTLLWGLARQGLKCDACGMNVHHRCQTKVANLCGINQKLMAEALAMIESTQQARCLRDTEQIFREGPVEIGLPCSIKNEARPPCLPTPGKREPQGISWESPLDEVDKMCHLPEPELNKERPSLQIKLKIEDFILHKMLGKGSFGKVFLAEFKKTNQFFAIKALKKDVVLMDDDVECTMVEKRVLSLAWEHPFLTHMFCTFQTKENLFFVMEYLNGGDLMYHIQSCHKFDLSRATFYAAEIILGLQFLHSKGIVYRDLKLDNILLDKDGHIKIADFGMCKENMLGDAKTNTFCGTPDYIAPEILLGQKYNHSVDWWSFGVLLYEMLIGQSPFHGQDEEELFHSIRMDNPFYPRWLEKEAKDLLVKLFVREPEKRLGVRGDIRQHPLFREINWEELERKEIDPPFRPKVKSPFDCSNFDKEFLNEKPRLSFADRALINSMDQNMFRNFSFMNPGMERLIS
Experimental: The following is an example of an assay that can be used to determine the PKCθ inhibitory activity of a test compound. Reagents are prepared as follows:
Assay Buffer: 50 mM HEPES (pH 7.6), 10 mM MgCl, 0.1 mM EDTA, 5 mM MBP, 0.01% Triton, 1 mM DTT, 0.05 mg/ml phosphatidyl serine, 0.05 mg/ml diacylglycerol.
The final concentration of PKCθ (Invitrogen) is 0.5 nM. The final concentration of substrate (FAM-AKRRRLSSLRA) (Molecular Devices) is 100 nM. The final concentration of ATP in the reaction is 35 μM. The final concentration of DMSO in the reaction is 2.5%.
Enzyme is kept in 5 μl aliquots and stored at −80° C. prior to use. Test compound is allowed to pre-incubate with enzyme for 45 minutes before the reactions is initiated.
The reaction mixture consists of: 5 μl of test compound in 10% DMSO, 5 μl of 400 nM substrate (FAM-AKRRRLSSLRA), 5 μl of […] PKCθ, and 5 μl of 140 μM ATP (ATP is added to the reaction mixture last to initiate the reaction) per well.
The reaction is allowed to proceed for 60 minutes and is terminated by adding 30 μl per well of 90% Progressive A buffer/10% Progressive B buffer and a 1:400 dilution of binding beeds (Molecular Devices).
The reaction is given a binding incubation time of at least 30 minutes prior to reading the fluorescence polarization signal on an Analyst reader (the following detector settings are used: fluorescein excitation-485 nm, fluorescein emission-530 nm, fluorescein dichroic-505 nm).

## C[C@H](c1ccccc1)n1c(=O)[nH]c2ncc(-c3cccc4ncccc34)nc21 [Compound 10, (R)-1-(1-phenylethyl)-6-(quinolin-5-yl)-1H-imidazo[4,5-b]pyrazin-2(3H)-one]
mTOR
  IC50: 10.1 to 20 µM
PKCθ
  IC50: 0.1 to 5 µM

## O=c1[nH]c2ncc(-c3cccc4ncccc34)nc2n1Cc1ccccc1 [Compound 14, 1-benzyl-6-(quinolin-5-yl)-1H-imidazo[4,5-b]pyrazin-2(3H)-one]
mTOR
  IC50: 0.1 to 5 µM
PKCθ
  IC50: > 30 µM

## COc1ccc(Cn2c(=O)[nH]c3ncc(-c4cccc5ncccc45)nc32)cc1 [Compound 15, 1-(4-methoxybenzyl)-6-(quinolin-5-yl)-1H-imidazo[4,5-b]pyrazin-2(3H)-one]
mTOR
  IC50: 0.1 to 5 µM
PKCθ
  IC50: > 30 µM

## C[C@H](c1ccccc1)n1c(=O)[nH]c2cnc(-c3cccc4ncccc34)cc21 [Compound 24, (R)-1-(1-phenylethyl)-6-(quinolin-5-yl)-1H-imidazo[4,5-c]pyridin-2(3H)-one]
mTOR
  IC50: > 30 µM
PKCθ
  IC50: > 30 µM

## C[C@@H](c1ccccc1)n1c(=O)[nH]c2cnc(-c3cccc4ncccc34)cc21 [Compound 25, (S)-1-(1-phenylethyl)-6-(quinolin-5-yl)-1H-imidazo[4,5-c]pyridin-2(3H)-one]
mTOR
  IC50: > 30 µM
PKCθ
  IC50: > 30 µM

## CC(c1ccccc1)n1c(=O)[nH]c2ccc(-c3cccc4ncccc34)nc21 (stereo not shown) [Compound 26, 3-(1-phenylethyl)-5-(quinolin-5-yl)-1H-imidazo[4,5-b]pyridin-2(3H)-one]
mTOR
  IC50: > 30 µM
PKCθ
  IC50: 5.1 to 10 µM

## C[C@H](c1ccccc1)n1c(=O)[nH]c2ccc(-c3cccc4ncccc34)nc21 [Compound 27, (R)-3-(1-phenylethyl)-5-(quinolin-5-yl)-1H-imidazo[4,5-b]pyridin-2(3H)-one]
mTOR
  IC50: > 30 µM
PKCθ
  IC50: 5.1 to 10 µM

## O=c1[nH]c2ncc(-c3cccc4ncccc34)nc2n1[C@@H](CO)c1ccccc1 [Compound 40, (R)-1-(2-hydroxy-1-phenylethyl)-6-(quinolin-5-yl)-1H-imidazo[4,5-b]pyrazin-2(3H)-one]
mTOR
  IC50: 10.1 to 20 µM
PKCθ
  IC50: 10.1 to 20 µM

## O=c1[nH]c2ncc(-c3cccc4ncccc34)nc2n1[C@H](CO)c1ccccc1 [Compound 41, (S)-1-(2-hydroxy-1-phenylethyl)-6-(quinolin-5-yl)-1H-imidazo[4,5-b]pyrazin-2(3H)-one]
mTOR
  IC50: 5.1 to 10 µM
PKCθ
  IC50: 0.1 to 5 µM

## CC[C@H](c1ccccc1)n1c(=O)[nH]c2ncc(-c3cccc4ncccc34)nc21 [Compound 45, (R)-1-(1-phenylpropyl)-6-(quinolin-5-yl)-1H-imidazo[4,5-b]pyrazin-2(3H)-one]
mTOR
  IC50: > 30 µM
PKCθ
  IC50: 0.1 to 5 µM

## COc1cccc(Cn2c(=O)[nH]c3ncc(-c4cccc5ncccc45)nc32)c1 [Compound 47, 1-(3-methoxybenzyl)-6-(quinolin-5-yl)-1H-imidazo[4,5-b]pyrazin-2(3H)-one]
mTOR
  IC50: 0.1 to 5 µM
PKCθ
  IC50: > 30 µM

## O=c1[nH]c2ncc(-c3cccc4ncccc34)nc2n1CC1CCCC1 [Compound 50, 1-(cyclopentylmethyl)-6-(quinolin-5-yl)-1H-imidazo[4,5-b]pyrazin-2(3H)-one]
mTOR
  IC50: 0.1 to 5 µM
PKCθ
  IC50: 10.1 to 20 µM

## CC(c1ccccc1F)n1c(=O)[nH]c2ncc(-c3cccc4ncccc34)nc21 (stereo not shown) [Compound 51, 1-(1-(2-fluorophenyl)ethyl)-6-(quinolin-5-yl)-1H-imidazo[4,5-b]pyrazin-2(3H)-one]
mTOR
  IC50: 5.1 to 10 µM
PKCθ
  IC50: 5.1 to 10 µM

## CC(c1ccc(F)cc1)n1c(=O)[nH]c2ncc(-c3cccc4ncccc34)nc21 (stereo not shown) [Compound 52, 1-(1-(4-fluorophenyl)ethyl)-6-(quinolin-5-yl)-1H-imidazo[4,5-b]pyrazin-2(3H)-one]
mTOR
  IC50: 5.1 to 10 µM
PKCθ
  IC50: 0.1 to 5 µM

## O=c1[nH]c2ncc(-c3cccc4ncccc34)nc2n1C1CCCC1 [Compound 53, 1-cyclopentyl-6-(quinolin-5-yl)-1H-imidazo[4,5-b]pyrazin-2(3H)-one]
mTOR
  IC50: 5.1 to 10 µM
PKCθ
  IC50: > 30 µM

## CC(c1cccc(F)c1)n1c(=O)[nH]c2ncc(-c3cccc4ncccc34)nc21 (stereo not shown) [Compound 54, 1-(1-(3-fluorophenyl)ethyl)-6-(quinolin-5-yl)-1H-imidazo[4,5-b]pyrazin-2(3H)-one]
mTOR
  IC50: 5.1 to 10 µM
PKCθ
  IC50: 0.1 to 5 µM

## COc1cccc(C(C)n2c(=O)[nH]c3ncc(-c4cccc5ncccc45)nc32)c1 (stereo not shown) [Compound 55, 1-(1-(3-methoxyphenyl)ethyl)-6-(quinolin-5-yl)-1H-imidazo[4,5-b]pyrazin-2(3H)-one]
mTOR
  IC50: 5.1 to 10 µM
PKCθ
  IC50: 0.1 to 5 µM

## COc1ccc(C(C)n2c(=O)[nH]c3ncc(-c4cccc5ncccc45)nc32)cc1 (stereo not shown) [Compound 56, 1-(1-(4-methoxyphenyl)ethyl)-6-(quinolin-5-yl)-1H-imidazo[4,5-b]pyrazin-2(3H)-one]
mTOR
  IC50: > 30 µM
PKCθ
  IC50: 0.1 to 5 µM

## O=c1[nH]c2ncc(-c3cccc4ncccc34)nc2n1C1CCOCC1 [Compound 57, 6-(quinolin-5-yl)-1-(tetrahydro-2H-pyran-4-yl)-1H-imidazo[4,5-b]pyrazin-2(3H)-one]
mTOR
  IC50: > 30 µM
PKCθ
  IC50: > 30 µM

## O=c1[nH]c2ncc(-c3cccc4ncccc34)nc2n1C1CCCOC1 (stereo not shown) [Compound 58, 6-(quinolin-5-yl)-1-(tetrahydro-2H-pyran-3-yl)-1H-imidazo[4,5-b]pyrazin-2(3H)-one]
mTOR
  IC50: 10.1 to 20 µM
PKCθ
  IC50: > 30 µM

## O=c1[nH]c2ncc(-c3cccc4ncccc34)nc2n1C1CCC(O)CC1 (stereo not shown) [Compound 59, 1-((1s,4s)-4-hydroxycyclohexyl)-6-(quinolin-5-yl)-1H-imidazo[4,5-b]pyrazin-2(3H)-one]
mTOR
  IC50: 10.1 to 20 µM
PKCθ
  IC50: 10.1 to 20 µM

## O=c1[nH]c2ncc(-c3cccc4ncccc34)nc2n1C1CCC(O)CC1 (stereo not shown) [Compound 60, 1-((1r,4r)-4-hydroxycyclohexyl)-6-(quinolin-5-yl)-1H-imidazo[4,5-b]pyrazin-2(3H)-one]
mTOR
  IC50: > 30 µM
PKCθ
  IC50: 20.1 to 30 µM

## CC(c1ccccc1)n1c(=O)[nH]c2ncc(-c3cccc4cnccc34)nc21 (stereo not shown) [Compound 61, 6-(isoquinolin-5-yl)-1-(1-phenylethyl)-1H-imidazo[4,5-b]pyrazin-2(3H)-one]
mTOR
  IC50: 5.1 to 10 µM
PKCθ
  IC50: 10.1 to 20 µM

## CC(C)n1c(=O)[nH]c2ncc(-c3cccc4ncccc34)nc21 [Compound 64, 1-isopropyl-6-(quinolin-5-yl)-1H-imidazo[4,5-b]pyrazin-2(3H)-one]
mTOR
  IC50: 5.1 to 10 µM
PKCθ
  IC50: 20.1 to 30 µM

## CC(c1ccc(Cl)cc1)n1c(=O)[nH]c2ncc(-c3cccc4ncccc34)nc21 (stereo not shown) [Compound 65, 1-(1-(4-chlorophenyl)ethyl)-6-(quinolin-5-yl)-1H-imidazo[4,5-b]pyrazin-2(3H)-one]
mTOR
  IC50: 5.1 to 10 µM
PKCθ
  IC50: 0.1 to 5 µM

## Cc1nc2[nH]c(=O)n([C@@H](C)c3ccccc3)c2nc1-c1cccc2ncccc12 [Compound 68, 5-methyl-1-((S)-1-phenylethyl)-6-(quinolin-5-yl)-1H-imidazo[4,5-b]pyrazin-2(3H)-one]
mTOR
  IC50: > 30 µM
PKCθ
  IC50: > 30 µM

Source: patent US7981893B2, “Heteroaryl compounds, compositions thereof, and methods of treatment therewith” (Signal Pharmaceuticals, LLC, priority 2006, dated 2011)
